Assay results published in PMC9481151, “Discovery of new symmetrical and asymmetrical nitrile-containing 1,4-dihydropyridine derivatives as dual kinases and P-glycoprotein inhibitors: synthesis, in vitro assays, and in silico studies” (Journal of Enzyme Inhibition and Medicinal Chemistry, 2022).
Values after ≈ are worked out from the molar mass of the structure shown. Values joined by “and” are separate entries in the source; they are usually repeats but may differ in a detail not shown here. Identical values can stand only once. Like-named read-outs stand apart in the source and are kept apart here.

Tests used:
[1] = tested on: K-562; assay: NCI single dose (10 µM) SRB screen; type: cell-based, human; settings: leukaemia, 48 h
[2] = tested on: NCI-H460; assay: NCI single dose (10 µM) SRB screen; type: cell-based, human; settings: non-small cell lung cancer, 48 h
[3] = tested on: SF-539; assay: NCI single dose (10 µM) SRB screen; type: cell-based, human; settings: CNS cancer, 48 h
[4] = tested on: SK-MEL-28; assay: NCI single dose (10 µM) SRB screen; type: cell-based, human; settings: melanoma, 48 h
[5] = tested on: IGROV1; assay: NCI single dose (10 µM) SRB screen; type: cell-based, human; settings: ovarian cancer, 48 h
[6] = tested on: OVCAR-3; assay: NCI single dose (10 µM) SRB screen; type: cell-based, human; settings: ovarian cancer, 48 h
[7] = tested on: OVCAR-4; assay: NCI single dose (10 µM) SRB screen; type: cell-based, human; settings: ovarian cancer, 48 h
[8] = tested on: OVCAR-5; assay: NCI single dose (10 µM) SRB screen; type: cell-based, human; settings: ovarian cancer, 48 h
[9] = tested on: OVCAR-8; assay: NCI single dose (10 µM) SRB screen; type: cell-based, human; settings: ovarian cancer, 48 h
[10] = tested on: 786-0; assay: NCI single dose (10 µM) SRB screen; type: cell-based, human; settings: renal cancer, 48 h
[11] = tested on: RXF 393; assay: NCI single dose (10 µM) SRB screen; type: cell-based, human; settings: renal cancer, 48 h
[12] = tested on: SN12C; assay: NCI single dose (10 µM) SRB screen; type: cell-based, human; settings: renal cancer, 48 h
[13] = tested on: T-47D; assay: NCI single dose (10 µM) SRB screen; type: cell-based, human; settings: breast cancer, 48 h
[14] = tested on: drug-resistant HCT-116/ADR cells; assay: Potentiation of DOX cytotoxicity (reversal DOX effect, P-gp modulation); type: cell-based, human; settings: IC50 (DOX) without modulator / IC50 (DOX) with modulator
[15] = target: EGFR (Homo sapiens, UniProt P00533); assay: EGFR kinase inhibitory activity; type: biochemical
EGFR, sequence (P00533 25-1210): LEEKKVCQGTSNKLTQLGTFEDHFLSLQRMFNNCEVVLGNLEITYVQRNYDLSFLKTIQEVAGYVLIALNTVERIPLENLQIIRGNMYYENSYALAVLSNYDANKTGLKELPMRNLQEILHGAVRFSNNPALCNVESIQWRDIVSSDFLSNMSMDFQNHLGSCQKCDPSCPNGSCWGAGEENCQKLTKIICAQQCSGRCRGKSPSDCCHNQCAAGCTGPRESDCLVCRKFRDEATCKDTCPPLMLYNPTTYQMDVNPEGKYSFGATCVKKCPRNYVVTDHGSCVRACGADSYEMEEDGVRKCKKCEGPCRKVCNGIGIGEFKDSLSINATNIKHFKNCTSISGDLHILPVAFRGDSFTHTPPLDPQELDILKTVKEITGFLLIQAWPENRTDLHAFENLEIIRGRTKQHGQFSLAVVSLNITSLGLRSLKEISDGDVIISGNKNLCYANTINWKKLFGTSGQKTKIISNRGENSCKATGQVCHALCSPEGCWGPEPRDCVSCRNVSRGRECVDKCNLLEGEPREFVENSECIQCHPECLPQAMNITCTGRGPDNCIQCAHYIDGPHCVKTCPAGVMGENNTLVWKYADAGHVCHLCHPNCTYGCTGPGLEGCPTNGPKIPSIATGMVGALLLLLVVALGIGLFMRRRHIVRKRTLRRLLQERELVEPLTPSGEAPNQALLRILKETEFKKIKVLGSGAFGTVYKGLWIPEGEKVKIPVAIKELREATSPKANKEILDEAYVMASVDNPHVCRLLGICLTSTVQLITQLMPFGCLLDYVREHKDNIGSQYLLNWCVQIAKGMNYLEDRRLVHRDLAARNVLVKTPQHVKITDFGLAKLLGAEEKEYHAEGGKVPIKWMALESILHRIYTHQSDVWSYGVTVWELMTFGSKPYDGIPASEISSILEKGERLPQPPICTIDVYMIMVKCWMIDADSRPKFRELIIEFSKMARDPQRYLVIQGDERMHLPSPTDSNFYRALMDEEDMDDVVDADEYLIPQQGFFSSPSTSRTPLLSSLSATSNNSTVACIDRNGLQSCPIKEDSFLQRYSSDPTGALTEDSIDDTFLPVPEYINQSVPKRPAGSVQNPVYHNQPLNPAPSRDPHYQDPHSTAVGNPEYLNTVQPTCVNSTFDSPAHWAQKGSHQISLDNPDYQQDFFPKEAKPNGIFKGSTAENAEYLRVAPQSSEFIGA

[16] = target: HER-2 (Homo sapiens, UniProt P04626); assay: HER-2 kinase inhibitory activity; type: biochemical
HER-2, sequence (P04626 23-1255): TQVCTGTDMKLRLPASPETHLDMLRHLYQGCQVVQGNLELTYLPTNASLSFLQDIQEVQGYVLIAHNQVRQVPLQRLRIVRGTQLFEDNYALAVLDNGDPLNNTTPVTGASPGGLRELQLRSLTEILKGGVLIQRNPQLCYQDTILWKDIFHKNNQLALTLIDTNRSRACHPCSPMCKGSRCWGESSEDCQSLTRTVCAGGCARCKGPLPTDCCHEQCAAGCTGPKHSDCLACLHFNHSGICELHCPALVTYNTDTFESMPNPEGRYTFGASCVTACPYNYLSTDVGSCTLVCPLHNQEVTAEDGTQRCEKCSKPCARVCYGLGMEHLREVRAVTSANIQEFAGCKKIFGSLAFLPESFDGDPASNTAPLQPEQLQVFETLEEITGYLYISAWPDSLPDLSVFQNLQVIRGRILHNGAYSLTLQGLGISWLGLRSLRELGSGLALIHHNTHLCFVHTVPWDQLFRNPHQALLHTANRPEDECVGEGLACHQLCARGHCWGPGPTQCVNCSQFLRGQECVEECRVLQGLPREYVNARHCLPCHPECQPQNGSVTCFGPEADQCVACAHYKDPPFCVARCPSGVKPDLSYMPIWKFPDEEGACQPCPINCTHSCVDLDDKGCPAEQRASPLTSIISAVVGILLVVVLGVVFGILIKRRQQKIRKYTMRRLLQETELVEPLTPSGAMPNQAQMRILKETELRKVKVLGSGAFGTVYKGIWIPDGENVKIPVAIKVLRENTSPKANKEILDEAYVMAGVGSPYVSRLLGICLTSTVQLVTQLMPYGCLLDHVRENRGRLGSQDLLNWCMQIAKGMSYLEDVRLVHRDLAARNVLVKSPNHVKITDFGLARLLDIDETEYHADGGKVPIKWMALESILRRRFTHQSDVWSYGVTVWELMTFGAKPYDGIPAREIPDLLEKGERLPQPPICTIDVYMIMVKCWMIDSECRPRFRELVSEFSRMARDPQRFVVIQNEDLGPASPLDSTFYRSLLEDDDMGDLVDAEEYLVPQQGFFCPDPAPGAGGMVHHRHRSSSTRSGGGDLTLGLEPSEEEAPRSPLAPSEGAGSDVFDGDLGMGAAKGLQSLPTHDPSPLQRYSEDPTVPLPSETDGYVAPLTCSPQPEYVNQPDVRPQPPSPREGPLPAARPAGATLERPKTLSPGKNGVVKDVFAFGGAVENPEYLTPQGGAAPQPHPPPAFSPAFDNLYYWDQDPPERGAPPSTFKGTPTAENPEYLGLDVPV

[17] = target: BTK (Homo sapiens, UniProt Q06187); assay: BTK inhibitory activity; type: biochemical
BTK, sequence (Q06187 whole entry): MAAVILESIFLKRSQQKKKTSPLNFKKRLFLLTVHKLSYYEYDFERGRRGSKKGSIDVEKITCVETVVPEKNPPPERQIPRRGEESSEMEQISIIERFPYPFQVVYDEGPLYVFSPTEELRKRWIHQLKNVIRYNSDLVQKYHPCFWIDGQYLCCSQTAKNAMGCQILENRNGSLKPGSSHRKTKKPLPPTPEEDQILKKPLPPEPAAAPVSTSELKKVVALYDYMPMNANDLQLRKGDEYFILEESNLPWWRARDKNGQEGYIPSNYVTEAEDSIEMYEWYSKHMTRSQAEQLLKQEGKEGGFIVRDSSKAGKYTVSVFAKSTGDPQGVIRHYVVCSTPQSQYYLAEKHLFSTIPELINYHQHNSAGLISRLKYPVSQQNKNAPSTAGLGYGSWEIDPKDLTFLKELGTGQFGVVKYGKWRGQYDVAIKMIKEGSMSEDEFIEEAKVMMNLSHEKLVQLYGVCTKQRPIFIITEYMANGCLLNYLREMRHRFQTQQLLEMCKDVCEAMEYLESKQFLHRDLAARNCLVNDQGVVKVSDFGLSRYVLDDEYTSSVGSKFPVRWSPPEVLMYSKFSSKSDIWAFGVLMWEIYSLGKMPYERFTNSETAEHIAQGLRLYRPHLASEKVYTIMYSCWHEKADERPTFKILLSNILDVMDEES

[18] = tested on: HCT-116 cells; assay: Annexin V–FITC apoptosis assay; type: cell-based, human; settings: HCT-116, 10 µM, 24 h
Excerpt: Apoptosis induction is the most important mechanism by chemotherapeutics killing tumour cells.[62]^,[63] Phosphatidylserine (PS) is translocated from the inside to the outside of the plasma membrane during apoptosis, causing cellular alterations. Annexin-V binds to PS and can be employed as a sensitive probe on the plasma membrane’s outer side.[64]^,[65]
PS externalisation was identified using the apoptosis detection kit (Annexin V-FITC/PI) (BD Biosciences) in accordance with the manufacturer’s guidelines.[79]

[19] = tested on: HCT-116 cells; assay: In vitro cell cycle analysis (DNA flow cytometry); type: cell-based, human; settings: HCT-116, 24 h, IC50 concentrations
Description: Targeting the cancer cell cycle has been developed as a encouraging approach for cancer therapy.[66]
The cells were centrifuged, frozen in cold 75% ethanol, washed in phosphate buffered saline, resuspended with […] RNase, then stained with […] PI, and analysed with a FACS Calibur (Becton Dickinson, BD, Franklin Lakes, NJ). The cell cycle distributions were determined using Becton Dickinson’s CellQuest software version 5.1.[80]

[20] = tested on: HCT-116/ADR cells; assay: cells; settings: Homo sapiens, HCT-116, read-out: Cytotoxicity IC50, HCT-116/ADR
[21] = tested on: HCT-116 cells; assay: In vitro cytotoxicity; settings: Homo sapiens, HCT-116, read-out: Cytotoxicity IC50, HCT-116
[22] = tested on: Pseudomonas aeruginosa; assay: Agar well diffusion method; settings: for % activity index, P. aeruginosa: relative to ciprofloxacin; for zone of inhibition at 1000 µg/mL: Pseudomonas aeruginosa, 24 h, read-out: Diameter of inhibition zone, P. aeruginosa
[23] = tested on: Aspergillus flavus; assay: Agar well diffusion method; settings: for % activity index, A. flavus: relative to clotrimazole; for zone of inhibition at 1000 µg/mL: Aspergillus flavus, 24 h, read-out: Diameter of inhibition zone, A. flavus
[24] = tested on: S. aureus; assay: MIC, two-fold microbroth dilution method; settings: Staphylococcus aureus
[25] = tested on: B. subtilis; assay: MIC, two-fold microbroth dilution method; settings: Bacillus subtilis
[26] = tested on: E. coli; assay: MIC, two-fold microbroth dilution method; settings: Escherichia coli, read-out: MIC (µg/mL) E. coli
[27] = tested on: P. aeruginosa; assay: MIC, two-fold microbroth dilution method; settings: Pseudomonas aeruginosa, read-out: MIC (µg/mL) P. aeruginosa
[28] = tested on: C. albicans; assay: MIC, two-fold microbroth dilution method; settings: Candida albicans
[29] = tested on: A. flavus; assay: MIC, two-fold microbroth dilution method; settings: Aspergillus flavus, read-out: MIC (µg/mL) A. flavus
[30] = (IC50 lapatinib/IC50 Compound)*100
[31] = read-out: MIC (µg/mL) S. aureus
[32] = read-out: MIC (µg/mL) B. subtilis
[33] = read-out: MIC (µg/mL) C. albicans
[34] = 24 h, read-out: MIC, B. subtilis

Row | SMILES | melting point | MIC [24, 31] | MIC [25, 32] | GI% K-562 [1] | GI% NCI-H460 [2] | GI% SF-539 [3] | GI% SK-MEL-28 [4] | GI% IGROV1 [5] | GI% OVCAR-3 [6] | GI% OVCAR-4 [7] | GI% OVCAR-5 [8] | GI% OVCAR-8 [9] | GI% 786-0 [10] | GI% RXF 393 [11] | GI% SN12C [12] | GI% T-47D [13] | % activity index, P. aeruginosa [22] | % activity index, A. flavus [23] | zone of inhibition at 1000 µg/mL [22] | zone of inhibition at 1000 µg/mL [23] | other results
1 | CCOC(=O)C1=C(C)NC(C)=C(C(=O)OCc2ccccc2)C1c1cccc(C#N)c1 (racemic) [Compound 2l, (±)-3- Benzyl 5-ethyl 4-(3-cyanophenyl)-2,6-dimethyl-1,4-dihydropyridine-3,5-dicarboxylate] |  |  |  | 83% | 77% | 76% | 48% | 57% | 76% | 28% | 38% | 51% | 63% | 55% | 63% | 72% | – (Values below 25 are of limited value and not shown as they refer either to inactive or non-diffusing compounds) | – (Values below 25 are of limited value and not shown as they refer either to inactive or non-diffusing compounds) |  |  | RF (reversal fold activity) [14]: 10.05; EGFR Potency [15, 30]: 72.29%; IC50 ([15]; read-out: EGFR IC50 ± SD): 75.2 ± 0.95 nM; HER-2 Potency [16, 30]: 89.10%; IC50 ([16]; read-out: HER-2 IC50 ± SD): 81.7 ± 0.92 nM; BTK Potency [17, 30]: 96.35%; IC50 ([17]; read-out: BTK IC50 ± SD): 63.8 ± 0.55 nM; early apoptosis ratio (lower-right quadrant) [18]: 4.37–6.17%; late apoptosis ratio (upper-right quadrant) [18]: 9.45–11.28%; %G0-G1 [19]: 39.17–43.25%; %G2-M [19]: 26.03–31.84%; %Pre-G1 [19]: 15.57–19.36%; IC50 [20]: 15830 ± 130 nM; IC50 [21]: 1110 ± 450 nM
2 | CCOC(=O)C1=C(C)NC(C)=C(C(=O)OC)C1c1cccc(C#N)c1 (racemic) [Compound 2g, (±)-3-Ethyl 5-methyl 4-(3-cyanophenyl)-2,6-dimethyl-1,4-dihydropyridine-3,5-dicarboxylate] | 151 to 153 °C | 0.5 µg/mL (≈ 1.47 µM) | 1 µg/mL (≈ 2.94 µM) | – (Only GI% ≥ 10 are shown) | – (Only GI% ≥ 10 are shown) | – (Only GI% ≥ 10 are shown) | – (Only GI% ≥ 10 are shown) | – (Only GI% ≥ 10 are shown) | – (Only GI% ≥ 10 are shown) | – (Only GI% ≥ 10 are shown) | – (Only GI% ≥ 10 are shown) | – (Only GI% ≥ 10 are shown) | – (Only GI% ≥ 10 are shown) | – (Only GI% ≥ 10 are shown) | – (Only GI% ≥ 10 are shown) | – (Only GI% ≥ 10 are shown) | 91% and 91.3% | 96% | 21 mm | 24 mm | MIC ([24]; 24 h, read-out: MIC, S. aureus): 0.5 µg/mL (≈ 1.47 µM); MIC [25, 34]: 1 µg/mL (≈ 2.94 µM); MIC [26]: 1 µg/mL (≈ 2.94 µM); MIC [27]: 2 µg/mL (≈ 5.88 µM); MIC ([28]; 24 h, read-out: MIC, C. albicans): 1 µg/mL (≈ 2.94 µM); MIC [28, 33]: 1 µg/mL (≈ 2.94 µM); MIC [29]: 2 µg/mL (≈ 5.88 µM)
3 | COC(=O)C1=C(C)NC(C)=C(C(=O)OC(C)C)C1c1cccc(C#N)c1 (racemic) [Compound 2a, (±)-3-Isopropyl 5-methyl 4-(3-cyanophenyl)-2,6-dimethyl-1,4-dihydropyridine-3,5-dicarboxylate] | 128 to 130 °C | 1 µg/mL (≈ 2.82 µM) | 2 µg/mL (≈ 5.64 µM) | 16% | – (Only GI% ≥ 10 are shown) | – (Only GI% ≥ 10 are shown) | – (Only GI% ≥ 10 are shown) | – (Only GI% ≥ 10 are shown) | – (Only GI% ≥ 10 are shown) | – (Only GI% ≥ 10 are shown) | – (Only GI% ≥ 10 are shown) | – (Only GI% ≥ 10 are shown) | – (Only GI% ≥ 10 are shown) | – (Only GI% ≥ 10 are shown) | – (Only GI% ≥ 10 are shown) | – (Only GI% ≥ 10 are shown) | 82.6% | 88% | 19 mm | 22 mm | MIC ([24]; 24 h, read-out: MIC, S. aureus): 1 µg/mL (≈ 2.82 µM); MIC [25, 34]: 2 µg/mL (≈ 5.64 µM); MIC [26]: 2 µg/mL (≈ 5.64 µM); MIC [27]: 4 µg/mL (≈ 11.3 µM); MIC [28, 33]: 4 µg/mL (≈ 11.3 µM); MIC [29]: 8 µg/mL (≈ 22.6 µM)

The next lines start with results.

Row | melting point | MIC [24, 31] | MIC [25, 32] | SMILES | GI% K-562 [1] | GI% NCI-H460 [2] | GI% SF-539 [3] | GI% SK-MEL-28 [4] | GI% IGROV1 [5] | GI% OVCAR-3 [6] | GI% OVCAR-4 [7] | GI% OVCAR-5 [8] | GI% OVCAR-8 [9] | GI% 786-0 [10] | GI% RXF 393 [11] | GI% SN12C [12] | GI% T-47D [13] | % activity index, P. aeruginosa [22] | % activity index, A. flavus [23] | zone of inhibition at 1000 µg/mL [22] | zone of inhibition at 1000 µg/mL [23] | other results
4 | 125 to 126 °C | 4 µg/mL (≈ 9.65 µM) | 2 µg/mL (≈ 4.83 µM) | COCCOC(=O)C1=C(C)NC(C)=C(C(=O)OCCOC)C1c1cccc(C#N)c1 [Compound 1f, Di(2-methoxyethyl) 4-(3-cyanophenyl)-2,6-dimethyl-1,4-dihydropyridine-3,5-dicarboxylate] | – (Only GI% ≥ 10 are shown) | – (Only GI% ≥ 10 are shown) | – (Only GI% ≥ 10 are shown) | – (Only GI% ≥ 10 are shown) | – (Only GI% ≥ 10 are shown) | – (Only GI% ≥ 10 are shown) | – (Only GI% ≥ 10 are shown) | – (Only GI% ≥ 10 are shown) | – (Only GI% ≥ 10 are shown) | – (Only GI% ≥ 10 are shown) | – (Only GI% ≥ 10 are shown) | – (Only GI% ≥ 10 are shown) | – (Only GI% ≥ 10 are shown) | 73.9% | 76% | 17 mm | 19 mm | MIC [26]: 8 µg/mL (≈ 19.3 µM); MIC [27]: 16 µg/mL (≈ 38.6 µM); MIC [28, 33]: 16 µg/mL (≈ 38.6 µM); MIC [29]: 16 µg/mL (≈ 38.6 µM)
5 | 133 to 134 °C | 16 µg/mL (≈ 41.6 µM) | 8 µg/mL (≈ 20.8 µM) | CCOC(=O)C1=C(C)NC(C)=C(C(=O)OCCOC)C1c1cccc(C#N)c1 (racemic) [Compound 2k, (±)-3-Ethyl 5-(2-methoxyethyl) 4-(3-cyanophenyl)-2,6-dimethyl-1,4-dihydropyridine-3,5-dicarboxylate] | 10% | – (Only GI% ≥ 10 are shown) | – (Only GI% ≥ 10 are shown) | – (Only GI% ≥ 10 are shown) | – (Only GI% ≥ 10 are shown) | – (Only GI% ≥ 10 are shown) | – (Only GI% ≥ 10 are shown) | – (Only GI% ≥ 10 are shown) | – (Only GI% ≥ 10 are shown) | – (Only GI% ≥ 10 are shown) | – (Only GI% ≥ 10 are shown) | – (Only GI% ≥ 10 are shown) | – (Only GI% ≥ 10 are shown) | 86.9% | 72% | 20 mm | 18 mm | MIC [26]: 4 µg/mL (≈ 10.4 µM); MIC [27]: 8 µg/mL (≈ 20.8 µM); MIC [28, 33]: 32 µg/mL (≈ 83.2 µM); MIC [29]: 32 µg/mL (≈ 83.2 µM)
